Assays:
[1] = system: arteriosklerotischen Arterienwandgewebe; test: Reduction of LDL catabolism in arteriosclerotic arterial wall tissue (131J-TDS-LDL incorporation); format: in vivo; conditions: cholesterol-fed Kaninchen, 0.2 % Testsubstanz in diet for 10 Tage, 24 Stunden after LDL infusion, thorakale Aorta; mean ± SEM (range); control 65.7 ± 3.9
Text: Beim arteriosklerotischen Kaninchen ist die Wirkung der neuen Phenolether direkt am arteriosklerotischen Plaque nachzuweisen. 131I-TDS-LDL, ein Radioiod-LDL, das von den Zellen nach oxydativer Modifikation aufgenommen wird, akkumuliert nach i.v. Gabe massiv im Plaquegewebe. Die neuen Phenolether hemmen signifikant und massiv den LDL-Katabolismus und damit die Cholesterinüberladung der Arterienwandzellen. Daraus resultiert langfristig die Hemmung des Wachstums der Läsionen (Tab. 4).
Jeweils 6 Kaninchen in der Kontrollgruppe und Bsp.l-Gruppe, bzw. 3 Kaninchen in der Probucol-Gruppe für 3 Monate mit 0.5 % Cholesterin-fettreicher Kaninchendiät gefüttert. Die Tiere der verschiedenen Gruppen haben S-Cholspiegel von 1028±99 (771-1358) - 1155±200 (655-1787) mg % am Ende der Fütterungsphase und- ein Körpergewicht von 3050-3680 g erreicht. Die Tiere erhalten dann für 10 Tage 0.2 % Testsubstanz in der fettreichen Diät und anschließend eine Infusion von ¹³¹J-Deoxysorbitol-LDL. Der Einbau von ¹³¹J-Deoxysorbitol in den Arterienwandzellen erfolgt ganz überwiegend in der arteriosklerotischen Läsion und ermöglicht die Quantifizierung des LDL-Umsatzes in den Zellen. 24 Stunden nach der Infusion des LDL werden die Tiere getötet und die thorakale Aorta präpariert. […]

LDL = test: Inhibition of Cu++-dependent LDL oxidation (TBARS formation); format: biochemical; conditions: 10 µM Testsubstanz, 125 µg/ml LDL-protein + 10 µM Cu++, 37° C
Protocol: (§1) Die neuen Phenolether wirken LDL-protektiv. Bei Inkubation des LDL it Redoxmetallen hemmen sie die Bildung von thiobarbitursäure-reaktiven Lipidperoxiden (Tab. 1), bei der Oxidation des LDL durch Lipoxydase wird eine selektive Hemmwirkung deutlich (Tab. 2). Unter Testbedingungen, die zu einem wirksamen LDL-Schutz führen, wird die Cholesterinesterbildung in kultivierten Makrophagen gehemmt (Tab. 3).
125 µg/ml LDL-protein + 10 µM Cu⁺⁺ wurden bei 37° C in 2 ml TN-Puffer (20 mM Tris ph 8, 150 mM NaCl) in An- und Abwesenheit von 10 µM Testsubstanz inkubiert. Die Bildung von LDL-Oxidationsprodukten wurde anhand thiobarbitursäurereaktiver Substanzen (TBARS) bei OD532 16 und 23 Stunden nach Beginn der Inkubation gemessen. Tabelle 2

[2] = system: P388D.1 murine Makrophagen; test: Inhibition of LDL-oxidation-dependent cholesterol ester formation in P388 macrophages; format: cell-based; conditions: 10 µm test substance, 18 Stunden, control without LDL 0.44, control + LDL 1.81
Protocol: as §1
125 µg/ml LDL-Protein wurde in F 10-Medium +1 µM Cu⁺⁺ für 5 Stunden inkubiert, um LDL-Antioxidantien zu depletieren. Dann wurden P388D.1 murine Makrophagen (1 x 10⁶ Zellen/ml) in F 10-Medium + 10 % FCS für 18 Stunden mit diesem Ansatz weiter inkubiert. Unter diesen Versuchsbedingungen bleibt das Verhältnis freies Cholesterin (FC)/Protein konstant bei 0.2 µg/mg, während die Cholesterinester in Abhängigkeit von LDL im Medium in den P388D.1 Makrophagen ansteigen, hier ausgedrückt als Anstieg des Verhältnisses von Cholesterinester/freiem Cholesterin […]. Tabelle 4

Lipoxydase aus Sojabohne = biological target: T1, Lipoxydase aus Sojabohne (Glycine max, UniProt P08170); test: Inhibition of LDL oxidation by lipoxydase (diene formation at A 234); format: biochemical; conditions: 100 µg LDL-Protein, 500 U/ml Lipoxydase, 37° C, 0-10 µM Testsubstanz, diene formation over 3 h
T1 construct: purchased Sigma, München
T1 sequence (P08170 1-839): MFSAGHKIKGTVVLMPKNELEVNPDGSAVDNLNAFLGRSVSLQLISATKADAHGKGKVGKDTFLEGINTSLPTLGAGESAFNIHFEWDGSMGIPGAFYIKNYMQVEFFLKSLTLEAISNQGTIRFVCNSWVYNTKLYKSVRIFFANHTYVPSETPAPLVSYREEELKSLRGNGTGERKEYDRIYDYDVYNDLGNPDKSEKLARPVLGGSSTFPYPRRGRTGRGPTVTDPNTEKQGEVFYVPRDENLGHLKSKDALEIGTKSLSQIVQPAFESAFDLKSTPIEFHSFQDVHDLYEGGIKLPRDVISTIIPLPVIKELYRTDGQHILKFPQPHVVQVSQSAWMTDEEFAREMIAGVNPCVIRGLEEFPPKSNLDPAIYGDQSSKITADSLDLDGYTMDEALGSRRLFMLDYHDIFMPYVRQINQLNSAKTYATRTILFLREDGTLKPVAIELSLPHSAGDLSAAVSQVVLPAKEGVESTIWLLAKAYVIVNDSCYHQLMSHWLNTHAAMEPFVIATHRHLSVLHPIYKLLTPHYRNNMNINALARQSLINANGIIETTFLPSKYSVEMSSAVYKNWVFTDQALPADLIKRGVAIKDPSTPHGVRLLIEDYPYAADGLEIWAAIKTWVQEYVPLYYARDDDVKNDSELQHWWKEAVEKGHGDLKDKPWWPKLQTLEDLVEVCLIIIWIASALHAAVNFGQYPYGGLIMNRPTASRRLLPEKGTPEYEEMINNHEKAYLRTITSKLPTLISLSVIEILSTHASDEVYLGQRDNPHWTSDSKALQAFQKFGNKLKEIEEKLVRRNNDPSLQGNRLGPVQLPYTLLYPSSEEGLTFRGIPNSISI
Protocol: (Tab. 2). […] Die Bildung von […] aus der Oxidation […] des LDL wird bei A 234 über 3 h verfolgt und ist im Kontrollansatz ca. 0.075/h. Die Inhibition der Dienbildung dient als Maß der Lipoxydaseaktivität am LDL-substrat.

CC(C)(C)c1cc(OCCCOc2cc(C(C)(C)C)c(O)c(C(C)(C)C)c2)cc(C(C)(C)C)c1O [Bsp. 1, 1,3-Bis-[4-hydroxy-3,5-di-tert.butyl-phenoxy]propan] was tested, and the “Einbau von 131J-TDS-LDLnorm±SEM ng/(mm³xdt/2)” value [1] was 35 ± 1,9 (7-63) ng/(mm³xdt/2), the “TBARS (OD 532) %” value (LDL; 16 Std., control 75) was 19% and the “TBARS (OD 532) %” value (LDL; 23 Std., control 100) was 76%. The “CE/FC” value [2] was 0.48 µg/µg and the IC50 (Lipoxydase aus Sojabohne) was 50 nM.

CC(C)(Sc1cc(C(C)(C)C)c(O)c(C(C)(C)C)c1)Sc1cc(C(C)(C)C)c(O)c(C(C)(C)C)c1 [Probucol, 4,4'[Isopropylidendithio]-bis(2,6-di-tert.-butyl), reference compound] was tested, and the “Einbau von 131J-TDS-LDLnorm±SEM ng/(mm³xdt/2)” value [1] was 84 ± 7.5 (40-144) ng/(mm³xdt/2), the “TBARS (OD 532) %” value (LDL; 16 Std., control 75) was 56% and the “TBARS (OD 532) %” value (LDL; 23 Std., control 100) was 88%. The “CE/FC” value [2] was 0.52 µg/µg.
